Molecular target: FGF-2 (Homo sapiens, UniProt P09038)
Assay: in vitro cellular test of FGF-2 activation
Type: cell-based

Chain of FGF-2 (P09038 143-288): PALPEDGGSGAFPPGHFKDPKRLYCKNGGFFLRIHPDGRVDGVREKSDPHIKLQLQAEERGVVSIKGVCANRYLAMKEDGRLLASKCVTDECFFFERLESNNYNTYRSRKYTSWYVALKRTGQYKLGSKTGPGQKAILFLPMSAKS

## Sodium [methyl(sodium 2-O-sodium sulfonato-α-L-idopyranosyluronate)-(1→4)-(2-deoxy-6-O-sodium sulfonato-2-sodium (sulfonatoamino)-α-D-glucopyranosyl)-(1→4)-[(sodium 2-O-sodium sulfonato-α-L-idopyranosyluronate)-(1→4)-(2-deoxy-6-O-sodium sulfonato-2-sodium sulfonatoamino)-α-D-glucopyranos)-(1→4)]2-2-O-sodium sulfonato-α-L-idopyranoside]uronate [Compound 3]
  FGF-2 activation compared with the hexasaccharide analogue (C. Tabeur et al.): better FGF-2 activators than the hexasaccharide analogue thereof

Source: patent US9527930B2, “FGF receptor-activating N-sulfate oligosaccharides, preparation thereof, and therapeutic use thereof” (priority 2009, dated 2016)
